# Data taken from patent US20250186410A1, “DUAL INHIBITORS OF TRYPTOPHAN DIOXYGENASES (IDO1 AND TDO) AND THEIR USE IN THERAPY” (ANTIDO THERAPEUTICS INTERNATIONAL SÀRL, priority 2022, published 2025).
# What was measured:
# [1] = MTT cell viability in the cellular IDO1/TDO experiments; assay type: cell-based; settings: mouse, read-out: Cytotoxicity IC50
# Method: The viability of the cells in each well in the same experiment was determined using the 3-(4,5-dimethylthiazolyl-2-yl)-2,5-diphenyltetrazolium bromide (MTT) colourimetric assay. After the removal of the supernatant for determination of IDO1 inhibition, the cells were incubated with MTT (500 μg/mL) until crystal formation was observed. Plates were centrifuged for 15 min at 2500 g, and then all the supernatant in then wells was discarded. DMSO (100 μL/well) was added to dissolve the crystals and then the absorbance in each well was measured at 570 nm. Cell viability in each well was expressed as a percentage of untreated controls. Triplicate cultures were used for all experiments unless stated otherwise.
# The viability of the cells in each well in the same experiment was determined using the 3-(4,5-dimethylthiazolyl-2-yl)-2,5-diphenyltetrazolium bromide (MTT) colourimetric assay.
# [2] = target: human TDO (GL261 cells transfected to over-express full length human TDO) (Homo sapiens (Human), UniProt P48775); assay: Cell-based assay for TDO inhibition; settings: 24 h; read-out: Cellular TDO IC50
# Method: Culture supernatant from each well was then transferred into a fresh, flat-bottomed 96-well plate, and kynurenine content was determined as described above for the IDO1 assay, and the concentration that inhibited 50% cellular enzyme activity was calculated.
# [3] = target: human IDO1 (LLTC-hIDO1 cells) (Homo sapiens (Human), UniProt P14902); assay: Cell-based assay for IDO1 inhibition; settings: 24 h; read-out: Cellular IDO1 IC50
# Method: Culture supernatant from each well was then transferred into a fresh, flat-bottomed 96-well plate, mixed with trichloroacetic acid (10% final concentration) and incubated for 20 min at 60° C. Plates were then centrifuged (10 min at 2500 g) and the supernatants were then transferred and mixed 1:1 with 4-(dimethylamino)benzaldehyde (20 mg/mL in acetic acid) in a new plate. The absorbance of each well was read at 480 nm, and the concentration that inhibited 50% cellular enzyme activity was calculated.
# [4] = target: Recombinant human IDO1 (rhIDO1) (Homo sapiens (Human), UniProt P14902); assay: Enzymatic assay for IDO1 activity; assay type: biochemical; settings: read-out: Isolated IDO1 Enayme Assay IC50
# Method: Recombinant human IDO1 (rhIDO1) was expressed and purified from cultures of EC538 strain of E. coli transformed with pREP4 and pQE9-IDO plasmid. Reaction mixes were set up in 384-well microplates containing 50 mM phosphate buffer, 10 mM ascorbic, 10 μM methylene blue, 100 μg/mL catalase, 80 μM TRP, 0.01% Tween 20 (v/v) mixed with rhIDO1 (15 μL) at a final concentration of 9 nM in a total volume of 30 μL assay medium. The plates were incubated at 37° C. for 30 min, and the enzymatic reaction was terminated by adding piperidine (200 mM) and heated at 65° C. for 20 min. Fluorescence intensity was read at λex 400 nm and λem 500 nm. Test compounds were dissolved in 100% DMSO and pre-diluted in assay medium prior to adding rhIDO1. IDO1 inhibition (%) was calculated as
# All experiments were carried out in triplicates, and statistical Analyses were conducted in Prism v5 (Graphpad Software, Inc., La Jolla, CA, USA).
# LLC-CR cells = settings: cited from earlier work
# human TDO (GL261 cells transfected to over-express full length human TDO), sequence (P48775 whole entry): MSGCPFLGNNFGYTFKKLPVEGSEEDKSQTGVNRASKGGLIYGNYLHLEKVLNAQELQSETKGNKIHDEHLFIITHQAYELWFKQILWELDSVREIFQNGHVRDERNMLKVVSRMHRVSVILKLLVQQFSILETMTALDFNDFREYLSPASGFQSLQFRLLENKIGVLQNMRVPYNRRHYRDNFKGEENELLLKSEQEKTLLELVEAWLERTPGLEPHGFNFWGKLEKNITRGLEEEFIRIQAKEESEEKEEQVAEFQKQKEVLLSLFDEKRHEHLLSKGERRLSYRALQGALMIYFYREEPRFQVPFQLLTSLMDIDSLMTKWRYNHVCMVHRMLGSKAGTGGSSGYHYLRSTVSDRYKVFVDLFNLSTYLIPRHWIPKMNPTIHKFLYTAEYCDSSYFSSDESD
# human IDO1 (LLTC-hIDO1 cells), sequence (P14902 whole entry): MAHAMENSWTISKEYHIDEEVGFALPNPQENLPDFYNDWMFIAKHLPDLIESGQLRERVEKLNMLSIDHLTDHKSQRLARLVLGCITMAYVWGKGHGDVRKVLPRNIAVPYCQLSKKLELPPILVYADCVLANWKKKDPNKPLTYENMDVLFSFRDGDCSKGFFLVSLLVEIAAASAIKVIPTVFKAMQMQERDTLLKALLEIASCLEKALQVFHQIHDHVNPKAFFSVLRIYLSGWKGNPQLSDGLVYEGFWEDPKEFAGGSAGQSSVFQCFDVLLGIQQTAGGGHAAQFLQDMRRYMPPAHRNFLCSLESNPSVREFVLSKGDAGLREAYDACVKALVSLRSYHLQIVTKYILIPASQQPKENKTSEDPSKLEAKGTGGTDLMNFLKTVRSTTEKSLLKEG
# Recombinant human IDO1 (rhIDO1), sequence (P14902 whole entry): as above
Structure (SMILES),IC50 [2] [µM],IC50 [3] [µM],IC50 [4] [µM],IC50 at 24 h [1] [µM],GI50 concentration in resistant clones (LLC-CR cells; LLC-CR cells) [µg/mL],fold resistance of LLC-CR (LLC-CR cells; LLC-CR versus parental LLC)
"Nc1noc2nc(Cl)ccc12 [Compound 11, 6-Chloroisoxazolo[5,4-b]pyridin-3-amine]",–,–,–,> 100,–,–
"Nc1noc2ncncc12 [Compound 12, Isoxazolo[5,4-d]pyrimidin-3-amine]",1 to 10,–,> 100,> 100,–,–
"Nc1noc2nc(-c3ccccc3)ccc12 [Compound 15, 6-Phenylisoxazolo[5,4-b]pyridin-3-amine]",10 to 100,–,> 100,> 100,–,–
"Cc1nc2onc(NC(=O)Nc3cccc(C(F)(F)F)c3)c2c(C)c1Cl [Compound 15B, 1-(5-Chloro-4,6-dimethylisoxazolo[5,4-b]pyridin-3-yl)-3-(3-(trifluoromethyl)phenyl)urea]",–,1 to 10,> 100,> 100,–,–
"Nc1noc2ncc(-c3ccccc3)cc12 [Compound 24, 5-Phenylisoxazolo[5,4-b]pyridin-3-amine]",1 to 10,10 to 100,> 100,> 100,–,–
"Nc1noc2nc(C(F)(F)F)ccc12 [Compound 47, 6-(Trifluoromethyl)isoxazolo[5,4-b]pyridin-3-amine]",1 to 10,–,< 1,> 100,–,–
"Nc1noc2nc(-c3cccs3)ccc12 [Compound 74, 6-(2-Thienyl)isoxazolo[5,4-b]pyridin-3-amine]",10 to 100,–,> 100,> 100,–,–
"Nc1noc2nc(Oc3ccccc3Cl)ccc12 [Compound 84, 6-(2-Chlorophenoxy)isoxazolo[5,4-b]pyridin-3-amine]",1 to 10,–,–,> 100,–,–
"Nc1noc2nc(Oc3ccc(OC(F)(F)F)cc3)ccc12 [Compound 89, 6-(4-(Trifluoromethoxy)phenoxy)isoxazolo[5,4-b]pyridin-3-amine]",–,–,–,> 100,–,–
"COc1cccc(Nc2ccc3c(N)noc3n2)c1 [Compound 95, N^6-(3-Methoxyphenyl)isoxazolo[5,4-b]pyridine-3,6-diamine]",10 to 100,10 to 100,> 100,> 100,–,–
N.N.O=C([O-])C1(C(=O)[O-])CCC1.[Pt+2] [carboplatin],–,–,–,–,1.3,3-5 fold

# The next lines start with results.
IC50 [2] [µM],IC50 [3] [µM],IC50 [4] [µM],Structure (SMILES),IC50 at 24 h [1] [µM],GI50 concentration in resistant clones (LLC-CR cells; LLC-CR cells) [µg/mL],fold resistance of LLC-CR (LLC-CR cells; LLC-CR versus parental LLC)
10 to 100,–,–,"Cc1nc2onc(N)c2c(C)c1Br [Compound 1, 5-Bromo-4,6-dimethylisoxazolo[5,4-b]pyridin-3-amine]",> 100,–,–
10 to 100,–,–,"Cc1nc2onc(N)c2c(C)c1Cl [Compound 3, 5-Chloro-4,6-dimethylisoxazolo[5,4-b]pyridin-3-amine]",10 to 100,–,–
10 to 100,–,–,"Cc1cc(C)c2c(N)noc2n1 [Compound 4, 4,6-Dimethylisoxazolo[5,4-b]pyridin-3-amine]",> 100,–,–
10 to 100,1 to 10,–,"Cc1nc2onc(N)c2c(C)c1C [Compound 5, 4,5,6-Trimethylisoxazolo[5,4-b]pyridin-3-amine]",> 100,–,–
< 1,–,–,"Nc1noc2ncc(Br)cc12 [Compound 6, 5-Bromoisoxazolo[5,4-b]pyridin-3-amine]",> 100,–,–
< 1,–,–,"Nc1noc2ncc(Cl)cc12 [Compound 8, 5-Chloroisoxazolo[5,4-b]pyridin-3-amine]",> 100,–,–
1 to 10,–,–,"Nc1noc2nc3ccccc3cc12 [Compound 9, Isoxazolo[5,4-b]quinolin-3-amine]",10 to 100,–,–
10 to 100,–,> 100,"Nc1noc2nc3c(cc12)CCCC3 [Compound 10, 5,6,7,8-Tetrahydroisoxazolo[5,4-b]quinolin-3-amine]",> 100,–,–
1 to 10,1 to 10,> 100,"Nc1noc2ncc(F)cc12 [Compound 14, 5-Fluoroisoxazolo[5,4-b]pyridin-3-amine]",> 100,–,–
< 1,–,–,"Nc1noc2ncc(I)cc12 [Compound 16, 5-Iodoisoxazolo[5,4-b]pyridin-3-amine]",> 100,–,–
10 to 100,1 to 10,> 100,"COc1ccc2c(N)noc2n1 [Compound 41, 6-Methoxyisoxazolo[5,4-b]pyridin-3-amine]",> 100,–,–
1 to 10,–,< 1,"Cc1cc(Cl)nc2onc(N)c12 [Compound 42, 6-Chloro-4-methylisoxazolo[5,4-b]pyridin-3-amine]",> 100,–,–
< 1,–,> 100,"Cc1cnc2onc(N)c2c1 [Compound 44, 5-Methylisoxazolo[5,4-b]pyridin-3-amine]",> 100,–,–
1 to 10,–,> 100,"Cc1cc2c(N)noc2nc1C [Compound 45, 5,6-Dimethylisoxazolo[5,4-b]pyridin-3-amine]",> 100,–,–
< 1,–,–,"Nc1noc2ncc([N+](=O)[O-])cc12 [Compound 49, 5-Nitroisoxazolo[5,4-b]pyridin-3-amine]",> 100,–,–
< 1,–,–,"Nc1noc2nc(Cl)c(Cl)cc12 [Compound 67, 5,6-Dichloroisoxazolo[5,4-b]pyridin-3-amine]",> 100,–,–
